Measurements reported in PMC5830749, “Bifunctional fluorescent probes for detection of amyloid aggregates and reactive oxygen species” (Royal Society Open Science, 2018).
Where a name gives a salt, the structure may show the parent alone. Read-outs that look alike come from different tables or passages of the source.

Key:
[1] = Bulk fluorescence response of dyes to H2O2; conditions: for increase in bulk fluorescence upon addition of H2O2: 100 µM H2O2, dye 5 µM, PBS pH 7.4, relative to free dye; for gradient of fluorescence intensity versus time curve: dyes incubated with H2O2, recorded over 5 h at 20 min intervals
Protocol: Next, the change in bulk fluorescence emission was assessed upon addition of H2O2 at a concentration realistic for cellular oxidative stress (100 µM) [31]. […] As the oxidation reaction is predominantly irreversible, these sensors record the total ROS exposure to a system, rather than the equilibrium value.

[2] = LCMS analysis of the reaction of the dyes with H2O2 in PBS; format: physicochemical; conditions: for dye molecules converted into the phenol: 1 hour incubation with 100 µM H2O2, PBS
Protocol: Next, the change in bulk fluorescence emission was assessed upon addition of H2O2 at a concentration realistic for cellular oxidative stress (100 µM). […] Furthermore, the kinetics could be followed, with all fluorescence traces increasing at varying rates in a linear regime over a 5 h period (figure 2c). As the oxidation reaction is predominantly irreversible, these sensors record the total ROS exposure to a system, rather than the equilibrium value. […] These measurements confirmed that the change in fluorescence intensity arose from the conversion of the boronic ester into the hydroxyl functionality. By contrast, no significant change in the chemical composition of the dye solutions occurred over the same time frame without addition of H2O2 (electronic supplementary material, figure S4).
LCMS analysis of the reaction of the dyes with H2O2 was performed using a Waters Acquity H-class UPLC coupled with a single quadrupole Waters SQD2. ACQUITY UPLC CSH C18 Column, 130 Å, 1.7 µm, 2.1 mm × 50 mm was used as the UPLC column. The conditions of the UPLC method are as follows:
Solvent A: Water +0.1% Formic acid; Solvent B: Acetonitrile +0.1% Formic acid; Gradient of 0-4 minutes 5% - 100%B + 1 minute 100% B with re-equilibration time of 2 minutes. Flow rate: 0.6 ml/min; Column temperature of 40 °C; Injection volume of […]. The signal was monitored at 254 nm.
Samples were prepared by diluting the stock solutions of the BE and mBE compounds (prepared as previously described) into PBS (pH 7.4) to a concentration of 30 µM. The diluted dye solutions were analysed via LCMS directly after dilution (t = 0 hour) as well as 1 hour after dilution (t = 1 hour) (Supplementary Table 1). To proof the oxidative cleavage of the boronic esters to a phenol triggered by H2O2, the diluted dye solutions were exposed to 100 µM H2O2 and analysed via LCMS after 1 hour of incubation (Supplementary Table 1).

[3] = Bulk photophysical properties of free dyes in PBS; conditions: free dye; for Stokes shift (λem − λabs) / brightness (ε × ΦFl) / maximum absorption wavelength (λabs) / maximum emission wavelength (λem) / molar extinction coefficient ε: PBS pH 7.4; for fluorescence quantum yield ΦFl: PBS pH 7.4, relative to a standard
Protocol: Several photophysical quantities were determined from ensemble absorption and emission data, using techniques previously described [38]. These included absorption maxima (λAbs), emission maxima (λEm) Stokes shift, molar extinction coefficient (ε) and fluorescence quantum yield (ΦFl).

[4] = cited from earlier work
αSyn aggregates [5] = biological target: T1, αSyn aggregates (Homo sapiens, UniProt P37840); experiment: SAVE (TIRF) single-aggregate fluorescence imaging, density of detected aggregates; set-up: made in house; host or cells: Escherichia coli
Protocol: Fluorescence imaging experiments were carried out with a bespoke inverted microscope (Nikon, Eclipse, TE2000-U) set-up optimized for TIRF measurements. […] Images were recorded at 100 ms exposure for 200 frames using automation through Micro-manager software.
Images were analysed with a bespoke ImageJ [41] macro. […] Pixels of intensity above background were determined with a fixed threshold and αSyn aggregate species in each field of view identified and counted. […] Five fields of view in the presence of H2O2 and five in the absence of H2O2 were analysed for each dye. Error bars represent the standard deviations of the species density between the five fields of view.

αSyn aggregates [6] = biological target: T1, αSyn aggregates; experiment: Bulk fluorescence response of dyes to preformed αSyn aggregates; set-up: made in house; host or cells: Escherichia coli; conditions: approx. 10 µM preformed αSyn aggregates, dye 5 µM, PBS pH 7.4
αSyn aggregates [7] = biological target: T1, αSyn aggregates; experiment: Surface plasmon resonance equilibrium affinity to immobilized αSyn aggregates; format: binding; set-up: made in house; host or cells: Escherichia coli; conditions: SPR, 25°C, before incubation with H2O2
H2O2 and αSyn aggregates = H2O2 and αSyn aggregates (Homo sapiens, UniProt P37840); conditions: 100 µM H2O2 (60 min) and approx. 10 µM αSyn aggregates, dye 5 µM
αSyn aggregates [8] = biological target: T1, αSyn aggregates; experiment: Limit of detection of oxidized probes by SAVE imaging; conditions: first dye concentration deviating from mean background by 3 s.d.
Protocol: To quantify this process, we determined the number of detectable aggregates, before and after addition of H2O2 and assumed constant surface coverage. […] The limit of detection (LOD) of oxidized BE (BE-Ox) and mBE (mBE-Ox) probes to αSyn aggregates was determined using SAVE imaging (electronic supplementary material, figure S8).
Glass cover-slides for SAVE fluorescence imaging were cleaned for 1 h using an argon plasma (PDC-002, Harrick Plasma) and the slide surface incubated with poly-L-lysine (PLK) for 30 min as previously described [13]. […] The working solution (50 µl) was added to the clean, PLK coated cover-slide and incubated for 2 min. The slide was then washed twice with PBS and imaged. H2O2 (100 µM) was then added directly to the cover-slide and the sample imaged again.

[9] = 30 µM in PBS pH 7.4, 60 minutes with 100 μM H2O2, UV 254 nm
[10] = 30 µM in PBS pH 7.4, time point 0 minutes, no H2O2, UV 254 nm
[11] = 30 µM in PBS pH 7.4, time point 60 minutes, no H2O2, UV 254 nm
[12] = after addition of 100 µM H2O2 (post-oxidation)
[13] = before addition of H2O2 (pre-oxidized)

Compound	Oxidized (phenol derivative) Rel. Area [2, 9] [%]	Hydrolyzed (boronic acid derivative) Rel. Area [2, 10] [%]	Hydrolyzed (boronic acid derivative) Rel. Area [2, 11] [%]	dye molecules converted into the phenol [2] [%]	Stokes shift (λem − λabs) [3] [nm]	brightness (ε × ΦFl) [3] [M⁻¹ cm⁻¹]	maximum absorption wavelength (λabs) [3] [nm]	maximum emission wavelength (λem) [3] [nm]	molar extinction coefficient ε [3]	fluorescence quantum yield ΦFl [3]	density of single αSyn aggregate species detected (αSyn aggregates [5]; [12]) [aggregates/µm^2]	density of single αSyn aggregate species detected (αSyn aggregates [5]; [13]) [aggregates/µm^2]	Hydrolyzed (boronic acid derivative) Rel. Area [2, 9] [%]	'compounded' increase in fluorescence with H2O2 and αSyn aggregates together (H2O2 and αSyn aggregates)	increase in bulk fluorescence upon addition of H2O2 [1]	gradient of fluorescence intensity versus time curve [1] [min⁻¹]	further results
O=C(O)c1ccccc1C1=c2cc3c4c(c2Oc2c1cc1c5c2CCCN5CCC1)CCC[N+]=4CCC3.[Cl-] [rhodamine 101]																	ΦFl of reference standard ([4]; in ethanol): 1
C=C[C@H]1C[N@@]2CC[C@H]1C[C@H]2[C@H](O)c1ccnc2ccc(OC)cc12 [quinine sulfate]																	ΦFl of reference standard ([4]; in 0.1 M H2SO4): 0.5
COc1ccc2c(c1)sc(-c1ccc(B3OCC(C)(C)CO3)cc1)[n+]2C.F[B-](F)(F)F [mBE02, 2-(4-(5,5-Dimethyl-1,3,2-dioxaborinan-2-yl)phenyl)-6-methoxy-3-methylbenzo[d]thiazol-3-ium tetrafluoroborate]	70	100	100	88	87	148	330	417	14 800 M^−1 cm^−1	0.01	0.0060 ± 0.0005	0.006 ± 0.001	12	no additional change in fluorescence	3.6 fold	0.015	Oxidized, de-methylated Rel. Area [2, 9]: 18.63%; increase in fluorescence intensity upon addition of αSyn aggregates (αSyn aggregates [6]): 3.8 fold; Kd (αSyn aggregates [7]): 33.5 ± 3.9 µM
Cc1ccc2c(c1)sc(-c1ccc(N(C)C)cc1)[n+]2C [ThT, thioflavin t, reference compound]						15	412	486	37 500 M^−1 cm^−1	0.00	0.026 ± 002	0.025 ± 0.004		no change in fluorescence	no change		limit of detection (LOD) to αSyn aggregates (αSyn aggregates [8]): 2.40 ± 0.64 µM
COc1ccc2c(c1)sc(-c1ccc(B3OC(C)(C)C(C)(C)O3)cc1)[n+]2C.F[B-](F)(F)F [mBE01, 6-Methoxy-3-methyl-2-(4-(4,4,5,5-tetramethyl-1,3,2-dioxaborolan-2-yl)phenyl)benzo[d]thiazol-3-ium tetrafluoroborate]	64	100	100	73	87	168	330	417	16 800 M^−1 cm^−1	0.01	0.0051 ± 0.0004	0.0040 ± 0.0004	27	no additional change in fluorescence	16.0 fold	0.011	Oxidized, de-methylated Rel. Area [2, 9]: 9.47%; increase in fluorescence intensity upon addition of αSyn aggregates (αSyn aggregates [6]): 7.1 fold; Kd (αSyn aggregates [7]): 35.2 ± 5.7 µM

Continued, in another order:

Oxidized (phenol derivative) Rel. Area [2, 9] [%]	Hydrolyzed (boronic acid derivative) Rel. Area [2, 10] [%]	Hydrolyzed (boronic acid derivative) Rel. Area [2, 11] [%]	dye molecules converted into the phenol [2] [%]	Stokes shift (λem − λabs) [3] [nm]	brightness (ε × ΦFl) [3] [M⁻¹ cm⁻¹]	maximum absorption wavelength (λabs) [3] [nm]	maximum emission wavelength (λem) [3] [nm]	molar extinction coefficient ε [3]	fluorescence quantum yield ΦFl [3]	density of single αSyn aggregate species detected (αSyn aggregates [5]; [12]) [aggregates/µm^2]	density of single αSyn aggregate species detected (αSyn aggregates [5]; [13]) [aggregates/µm^2]	Hydrolyzed (boronic acid derivative) Rel. Area [2, 9] [%]	'compounded' increase in fluorescence with H2O2 and αSyn aggregates together (H2O2 and αSyn aggregates)	Compound	increase in bulk fluorescence upon addition of H2O2 [1]	gradient of fluorescence intensity versus time curve [1] [min⁻¹]	further results
100	65	47	100	86	384	330	416	6400 M⁻¹ cm⁻¹	0.06					COc1ccc2nc(-c3ccc(B4OC(C)(C)C(C)(C)O4)cc3)sc2c1 [BE01, 6-methoxy-2-(4-(4,4,5,5-tetramethyl-1,3,2-dioxaborolan-2-yl)phenyl)benzo[d]thiazole]	2.0 fold	0.112 ± 0.002	H2O2 concentration detected ([1]; 5 µM dye, 5 h incubation with 0-100 µM H2O2): greater than 1 µM; Boronate ester Rel. Area [2, 10]: 35%; Boronate ester Rel. Area [2, 11]: 53%
90	100	100	90	82	168	330	412	4200 M⁻¹ cm⁻¹	0.04			10		COc1ccc2nc(-c3ccc(B4OCC(C)(C)CO4)cc3)sc2c1 [BE02, 2-(4-(5,5-dimethyl-1,3,2-dioxaborinan-2-yl)phenyl)-6-methoxybenzo[d]thiazole]		0.017	
